# Results: patent US9422297B2, “Tricyclic compounds having cytostatic and/or cytotoxic activity and methods of use thereof” (Duquesne University of the Holy Ghost, priority 2007, dated 2016)
# Key:
# SNB-19 = test: NCI In-Vitro Testing, CNS Cancer; type: cell-based
# HT29 = test: NCI In-Vitro Testing, Colon Cancer; type: cell-based
# DU-145 = test: NCI In-Vitro Testing, Prostate Cancer; type: cell-based
# HL-60(TB) = test: NCI In-Vitro Testing, Leukemia; type: cell-based
# HOP-92 = test: NCI In-Vitro Testing, Non-Small Cell Lung Cancer; type: cell-based
# SF-295 = test: NCI In-Vitro Testing, CNS Cancer; type: cell-based
# 60 tumor cell line panel = test: NCI 60 preclinical in vitro tumor screening panel; details: read-out: GI50 across tumor panel
# COLO 205 = test: NCI In-Vitro Testing, Colon Cancer; type: cell-based
# UACC-257 = test: NCI In-Vitro Testing, Melanoma; type: cell-based
# OVCAR-6 = test: NCI In-Vitro Testing, Ovarian Cancer; type: cell-based
# UACC-62 = test: NCI In-Vitro Testing, Melanoma; type: cell-based
# MCF7 = test: NCI In-Vitro Testing, Breast Cancer; type: cell-based
# SF-258 = test: NCI In-Vitro Testing, CNS Cancer; type: cell-based
# U251 = test: NCI In-Vitro Testing, CNS Cancer; type: cell-based
# IGROV1 = test: NCI In-Vitro Testing, Ovarian Cancer; type: cell-based
# SN12C = test: NCI In-Vitro Testing, Renal Cancer; type: cell-based
# HCT-116 = test: NCI In-Vitro Testing, Colon Cancer; type: cell-based
# ACHN = test: NCI In-Vitro Testing, Renal Cancer; type: cell-based
# OCRF-CEM = test: NCI In-Vitro Testing, Leukemia; type: cell-based
compound,measurement,setting,value
Nc1nc2c(c(Nc3ccc(Cl)cc3)n1)-c1ccccc1C2 [AAG145-136],GI50,SNB-19,1.13E−7 Molar
same,LC50,SNB-19,>1.00E−4 Molar
same,TGI,SNB-19,>1.00E−4 Molar
same,Percent Growth,SNB-19; Log10 Concentration −4.0 Molar,6%
same,Percent Growth,SNB-19; Log10 Concentration −5.0 Molar,17%
same,Percent Growth,SNB-19; Log10 Concentration −6.0 Molar,28%
same,Percent Growth,SNB-19; Log10 Concentration −7.0 Molar,51%
same,Percent Growth,SNB-19; Log10 Concentration −8.0 Molar,100%
same,GI50,HT29,9.39E−8 Molar
same,LC50,HT29,>1.00E−4 Molar
same,TGI,HT29,>1.00E−4 Molar
same,Percent Growth,HT29; Log10 Concentration −4.0 Molar,2%
same,Percent Growth,HT29; Log10 Concentration −5.0 Molar,7%
same,Percent Growth,HT29; Log10 Concentration −6.0 Molar,21%
same,Percent Growth,HT29; Log10 Concentration −7.0 Molar,49%
same,Percent Growth,HT29; Log10 Concentration −8.0 Molar,94%
same,GI50,DU-145,2.12E−7 Molar
same,LC50,DU-145,>1.00E−4 Molar
same,TGI,DU-145,>1.00E−4 Molar
same,Percent Growth,DU-145; Log10 Concentration −4.0 Molar,7%
same,Percent Growth,DU-145; Log10 Concentration −5.0 Molar,18%
same,Percent Growth,DU-145; Log10 Concentration −6.0 Molar,37%
same,Percent Growth,DU-145; Log10 Concentration −7.0 Molar,56%
same,Percent Growth,DU-145; Log10 Concentration −8.0 Molar,95%
same,GI50,HL-60(TB),1.50E−7 Molar
same,LC50,HL-60(TB),>1.00E−4 Molar
same,TGI,HL-60(TB),>1.00E−4 Molar
same,Percent Growth,HL-60(TB); Log10 Concentration −4.0 Molar,12%
same,Percent Growth,HL-60(TB); Log10 Concentration −5.0 Molar,13%
same,Percent Growth,HL-60(TB); Log10 Concentration −6.0 Molar,23%
same,Percent Growth,HL-60(TB); Log10 Concentration −7.0 Molar,56%
same,Percent Growth,HL-60(TB); Log10 Concentration −8.0 Molar,87%
same,GI50,HOP-92,1.81E−5 Molar
same,LC50,HOP-92,>1.00E−4 Molar
same,TGI,HOP-92,>1.00E−4 Molar
same,Percent Growth,HOP-92; Log10 Concentration −4.0 Molar,15%
same,Percent Growth,HOP-92; Log10 Concentration −5.0 Molar,62%
same,Percent Growth,HOP-92; Log10 Concentration −6.0 Molar,74%
same,Percent Growth,HOP-92; Log10 Concentration −7.0 Molar,96%
same,Percent Growth,HOP-92; Log10 Concentration −8.0 Molar,100%
same,GI50,SF-295,5.47E−7 Molar
same,LC50,SF-295,>1.00E−4 Molar
same,TGI,SF-295,>1.00E−4 Molar
same,Percent Growth,SF-295; Log10 Concentration −4.0 Molar,17%
same,Percent Growth,SF-295; Log10 Concentration −5.0 Molar,20%
same,Percent Growth,SF-295; Log10 Concentration −6.0 Molar,34%
same,Percent Growth,SF-295; Log10 Concentration −7.0 Molar,95%
same,Percent Growth,SF-295; Log10 Concentration −8.0 Molar,105%
same,GI50,60 tumor cell line panel,31.2 to 1000 nM
same,GI50,COLO 205,6.38E−7 Molar
same,LC50,COLO 205,>1.00E−4 Molar
same,TGI,COLO 205,>1.00E−4 Molar
same,Percent Growth,COLO 205; Log10 Concentration −4.0 Molar,11%
same,Percent Growth,COLO 205; Log10 Concentration −5.0 Molar,11%
same,Percent Growth,COLO 205; Log10 Concentration −6.0 Molar,41%
same,Percent Growth,COLO 205; Log10 Concentration −7.0 Molar,86%
same,Percent Growth,COLO 205; Log10 Concentration −8.0 Molar,99%
same,GI50,UACC-257,6.45E−8 Molar
same,LC50,UACC-257,>1.00E−4 Molar
same,TGI,UACC-257,>1.00E−4 Molar
same,Percent Growth,UACC-257; Log10 Concentration −4.0 Molar,6%
same,Percent Growth,UACC-257; Log10 Concentration −5.0 Molar,21%
same,Percent Growth,UACC-257; Log10 Concentration −6.0 Molar,33%
same,Percent Growth,UACC-257; Log10 Concentration −7.0 Molar,46%
same,Percent Growth,UACC-257; Log10 Concentration −8.0 Molar,102%
same,GI50,OVCAR-6,2.16E−7 Molar
same,LC50,OVCAR-6,>1.00E−4 Molar
same,TGI,OVCAR-6,>1.00E−4 Molar
same,Percent Growth,OVCAR-6; Log10 Concentration −4.0 Molar,18%
same,Percent Growth,OVCAR-6; Log10 Concentration −5.0 Molar,25%
same,Percent Growth,OVCAR-6; Log10 Concentration −6.0 Molar,36%
same,Percent Growth,OVCAR-6; Log10 Concentration −7.0 Molar,57%
same,Percent Growth,OVCAR-6; Log10 Concentration −8.0 Molar,102%
same,GI50,UACC-62,6.41E−7 Molar
same,LC50,UACC-62,>1.00E−4 Molar
same,TGI,UACC-62,>1.00E−4 Molar
same,Percent Growth,UACC-62; Log10 Concentration −4.0 Molar,32%
same,Percent Growth,UACC-62; Log10 Concentration −5.0 Molar,27%
same,Percent Growth,UACC-62; Log10 Concentration −6.0 Molar,38%
same,Percent Growth,UACC-62; Log10 Concentration −7.0 Molar,99%
same,Percent Growth,UACC-62; Log10 Concentration −8.0 Molar,99%
same,GI50,MCF7,7.34E−8 Molar
same,LC50,MCF7,>1.00E−4 Molar
same,TGI,MCF7,1.41E−5 Molar
same,Percent Growth,MCF7; Log10 Concentration −4.0 Molar,−26%
same,Percent Growth,MCF7; Log10 Concentration −5.0 Molar,5%
same,Percent Growth,MCF7; Log10 Concentration −6.0 Molar,17%
same,Percent Growth,MCF7; Log10 Concentration −7.0 Molar,45%
same,Percent Growth,MCF7; Log10 Concentration −8.0 Molar,63%
same,GI50,SF-258,8.62E−8 Molar
same,LC50,SF-258,>1.00E−4 Molar
same,TGI,SF-258,>1.00E−4 Molar
same,Percent Growth,SF-258; Log10 Concentration −4.0 Molar,21%
same,Percent Growth,SF-258; Log10 Concentration −5.0 Molar,19%
same,Percent Growth,SF-258; Log10 Concentration −6.0 Molar,27%
same,Percent Growth,SF-258; Log10 Concentration −7.0 Molar,45%
same,Percent Growth,SF-258; Log10 Concentration −8.0 Molar,104%
same,GI50,U251,1.84E−7 Molar
same,LC50,U251,>1.00E−4 Molar
same,TGI,U251,5.66E−5 Molar
same,Percent Growth,U251; Log10 Concentration −4.0 Molar,−6%
same,Percent Growth,U251; Log10 Concentration −5.0 Molar,19%
same,Percent Growth,U251; Log10 Concentration −6.0 Molar,29%
same,Percent Growth,U251; Log10 Concentration −7.0 Molar,53%
same,Percent Growth,U251; Log10 Concentration −8.0 Molar,98%
same,GI50,IGROV1,2.87E−7 Molar
same,LC50,IGROV1,>1.00E−4 Molar
same,TGI,IGROV1,>1.00E−4 Molar
same,Percent Growth,IGROV1; Log10 Concentration −4.0 Molar,11%
same,Percent Growth,IGROV1; Log10 Concentration −5.0 Molar,6%
same,Percent Growth,IGROV1; Log10 Concentration −6.0 Molar,24%
same,Percent Growth,IGROV1; Log10 Concentration −7.0 Molar,72%
same,Percent Growth,IGROV1; Log10 Concentration −8.0 Molar,93%
same,GI50,SN12C,1.89E−7 Molar
same,LC50,SN12C,>1.00E−4 Molar
same,TGI,SN12C,>1.00E−4 Molar
same,Percent Growth,SN12C; Log10 Concentration −4.0 Molar,9%
same,Percent Growth,SN12C; Log10 Concentration −5.0 Molar,25%
same,Percent Growth,SN12C; Log10 Concentration −6.0 Molar,37%
same,Percent Growth,SN12C; Log10 Concentration −7.0 Molar,55%
same,Percent Growth,SN12C; Log10 Concentration −8.0 Molar,102%
same,GI50,HCT-116,3.81E−8 Molar
same,LC50,HCT-116,>1.00E−4 Molar
same,TGI,HCT-116,>1.00E−4 Molar
same,Percent Growth,HCT-116; Log10 Concentration −4.0 Molar,6%
same,Percent Growth,HCT-116; Log10 Concentration −5.0 Molar,13%
same,Percent Growth,HCT-116; Log10 Concentration −6.0 Molar,13%
same,Percent Growth,HCT-116; Log10 Concentration −7.0 Molar,23%
same,Percent Growth,HCT-116; Log10 Concentration −8.0 Molar,87%
same,GI50,ACHN,3.42E−7 Molar
same,LC50,ACHN,>1.00E−4 Molar
same,TGI,ACHN,1.41E−5 Molar
same,Percent Growth,ACHN; Log10 Concentration −4.0 Molar,−22%
same,Percent Growth,ACHN; Log10 Concentration −5.0 Molar,4%
same,Percent Growth,ACHN; Log10 Concentration −6.0 Molar,21%
same,Percent Growth,ACHN; Log10 Concentration −7.0 Molar,83%
same,Percent Growth,ACHN; Log10 Concentration −8.0 Molar,89%
same,GI50,OCRF-CEM,3.12E−6 Molar
same,LC50,OCRF-CEM,>1.00E−4 Molar
same,TGI,OCRF-CEM,>1.00E−4 Molar
same,Percent Growth,OCRF-CEM; Log10 Concentration −4.0 Molar,11%
same,Percent Growth,OCRF-CEM; Log10 Concentration −5.0 Molar,6%
same,Percent Growth,OCRF-CEM; Log10 Concentration −6.0 Molar,8%
same,Percent Growth,OCRF-CEM; Log10 Concentration −7.0 Molar,22%
same,Percent Growth,OCRF-CEM; Log10 Concentration −8.0 Molar,77%
